Assay results taken from patent US8962600B2, “Neuroprotective compounds and their use” (The Medical College of Wisconsin, Inc., priority 2009, dated 2015).

Columns and labels:
MPTP-intoxicated mice = assay: Open Field locomotor activity in MPTP-injected mice; type: in vivo, C57BL/6 mice; settings: MPTP- and diapocynin-treated mice; 300 mg/kg oral gavage; 5 days after last MPTP injection; 10 min session
Protocol: Six- to 8-week-old C57BL/6 mice weighing 24 to 28 g were housed in standard conditions of constant temperature (22±1° C.), humidity (relative, 30%), and a 12-h light/dark cycle. Mice were allowed free access to food and water. Use of the animals and protocol procedures were approved and supervised by the Committee on Animal Care at Iowa State University (Ames, Iowa). For neurodegeneration studies, mice either received diapocynin (300 mg/kg dose) by oral gavage for 1 day (pre-treatment before MPTP administration), 5 days (co-treatment with MPTP), or 7 days (post-treatment after MPTP).
Two types of behavioral tests were performed including an Open Field experiment for testing locomotor activities and a Rotarod experiment to test coordination of movement of mice after MPTP and diapocynin treatment (48, 56). An Open Field activity monitor (model RXYZCM-16; AccuScan, Columbus, Ohio) was used to measure the spontaneous activity of mice. The activity chamber was 40×40×30.5 cm, made of clear PLEXIGLAS® and covered with a PLEXIGLAS® lid with holes for ventilation. Infrared monitoring sensors were located every 2.54 cm along the perimeter (16 infrared beams along each side) and 2.5 cm above the floor. Two additional sets of 16 sensors were located 8.0 cm above the floor on opposite sides. Data were collected and analyzed by a VersaMax Analyzer (model CDA-8, AccuScan). […]

mouse primary microglia = assay: LPS-induced iNOS activation (nitrite, Griess reagent) in primary microglia; type: cell-based; settings: diapocynin 10 μM, 30 min pretreatment, LPS 24 hr
Protocol: (§1) Primary microglia were obtained from 1-2 day old C57/b16 mouse pups. Upon collection, whole brains were kept in ice-cold DMEM-F12 medium containing 10% FBS, 1× sodium pyruvate, 1× NEAAs, 100 units pen/strep, and Q. After collection, the brains were placed in 0.25% trypsin-EDTA and incubated at 37° C., with gentle shaking every 5-10 min. After 30 min, the trypsin was removed, and the brains are washed in warmed medium twice. After washing, medium was added to the brains, and the brains were homogenized using gentle pipetting, starting with a 25 ml pipette and moving to smaller pipette tips as the brains were broken up. When the brains were sufficiently homogenized to a single-cell suspension, they were filtered with a 70 μm nylon filter, which allowed microglia and astrocytes to be collected. The resultant cell suspension was plated in T-75 flasks and allowed to grow for 12-14 days at 37° C., 5% CO2. Microglia were collected using an Easy Sep Magnet (Stemcell Technologies, Vancouver, BC, Canada) (68-69) and plated on poly-D-lysine-coated plates and allowed to attach for 2-4 days before treatment.
Inducible nitric oxide synthase (iNOS or NOS2) activation was assessed by measuring nitrite levels using Griess reagent in a 96-well format (70-72). […] The plate was shaken on a plate shaker for 10 min before being read in a plate reader at 540 nm.

TNF-α = assay: LPS-induced TNF-α release in primary microglia, LUMINEX immunoassay; type: cell-based, mouse; settings: diapocynin 10 μM, LPS 24 hr
Protocol: as §1, with “Microglia were collected using an Easy Sep Magnet (Stemcell Technologies, Vancouver, BC, Canada) (68-69) and plated on poly-D-lysine-coated plates and allowed to attach for 2-4 days before treatment.” left out
(§2) Cytokine levels of BV2 and microglial cells treated with diapocynin were determined by LUMINEX® multiplex immunoassay. […]
(§3) Cytokine standards and controls were adjusted to 40 μl volume and the LUMINEX® Samples were run on a LUMINEX® 200 Total System and analyzed with Multiplex Analysis—LUMINEX® Software (Invitrogen, Carlsbad, Calif.).

IL-1β = assay: LPS-induced IL-1β release in primary microglia, LUMINEX immunoassay; type: cell-based, mouse; settings: diapocynin 10 μM, LPS 24 hr
Protocol: as §1, with “Microglia were collected using an Easy Sep Magnet (Stemcell Technologies, Vancouver, BC, Canada) (68-69) and plated on poly-D-lysine-coated plates and allowed to attach for 2-4 days before treatment.” left out
as §2, §3

IL-12 = assay: LPS-induced IL-12 release in primary microglia, LUMINEX immunoassay; type: cell-based, mouse; settings: diapocynin 10 μM, LPS 24 hr
Protocol: as §1, with “Microglia were collected using an Easy Sep Magnet (Stemcell Technologies, Vancouver, BC, Canada) (68-69) and plated on poly-D-lysine-coated plates and allowed to attach for 2-4 days before treatment.” left out
as §2, §3

Compound: COc1cc(C(C)=O)cc(-c2cc(C(C)=O)cc(OC)c2O)c1O [diapocynin]
- horizontal activity (Open Field) (MPTP-intoxicated mice): significantly improved
- vertical activity (Open Field) (MPTP-intoxicated mice): significantly improved
- attenuating LPS-induced iNOS activation, compared with apocynin 100 μM (mouse primary microglia): just as effective
- blocking LPS-induced release of TNF-α (TNF-α): very effective
- blocking LPS-induced release of IL-1β (IL-1β): very effective
- blocking LPS-induced release of IL-12 (IL-12): very effective
